# Data published in patent US11065336B2, “Conjugates for targeting and clearing aggregates” (MedImmune Limited, priority 2018, dated 2021).
# Ends that are not written are not given here.
# Key:
# [1] = test system: amyloid proteins (hen lysozyme (hLys), human full-length alpha synuclein, human tau P301S); test: fluorometric assay of binding to amyloid proteins; conditions: 30 μM reporter solution in PBS; excitation 450 nm, emission 460-680 nm; compared to amyloid-free control
# Protocol: The binding of BDB to various amyloid proteins was evaluated in vitro using a fluorometric assay.
# The amyloid proteins (hen lysozyme (hLys), human full-length alpha synuclein, and human tau P301S) were individually prepared for use in the fluorometric assay. hLys (Sigma) was dissolved in 136.8 mM NaCl, 2.68 mM KCl, 0.01% w/v NaN3, pH 2 at a concentration of 1.45 mg/ml and incubated at 55° C. for 24 h in an orbital shaker at 150 rpm. Human full length alpha synuclein (Alexotech) was dissolved in 150 mM NaCl, 1% v/v triton-x100 in PBS at a concentration of 2.2 mg/ml and incubated at 37° C. for 72 h in an orbital shaker at 250 rpm. Human tau P301S was incubated at 8 mg/ml with 4 mg/ml heparin (Sigma) in PBS, 30 mM 3-(N-morpholino) propanesulfonic acid (MOPS) (pH 7.2) at 37° C. for 72 h. […]
# The binding of the BDB to amyloid was detected using a fluorometric assay. The amyloid binding was detected with the use of one of three fluorescent reporters solutions (30 μM BDB, cp33 peptide (Bonetto S et al. FASEB J. 2009; 23(2):575-85) or Thioflavin T (ThT) (Sigma) solution, in PBS). […] An Envision plate reader was set to excite at 450 nm and measure emission within the range 460-680 nm. The corresponding fluorescence signals of the reporter solutions were subtracted from the experimental data.
# [2] = test system: macrophage-differentiated U937 cells; test: phagocytosis of pHrodo-red labelled hLys amyloid (IncuCyte); format: cell-based, human
# Protocol: Macrophage-differentiated U937 cells were co-incubated with pHrodo-red labelled amyloid, BDB, cp33 peptide, or control in order to determine the amount of amyloid phagocytosed under various conditions. hLys amyloid fibrils were generated as described above and were labelled with the pHrodo Red Microscale Labeling Kit (ThermoFisher) according to the manufacturers instruction except that unincorporated label was removed from the labelled amyloid by three rounds of centrifuging at 20,000×g in a microfuge, discarding the supernatant and resuspending the amyloid pellet in PBS. U937 cells were differentiated into macrophages in the presence of […] M-CSF (Peprotech), 1 μg/ml PMA (Sigma) and […] IFNγ (Thermo Fisher Scientific) for 4 days. 8×10^5 cells/condition were centrifuged for 3 min at 300 g and resuspended in 50 μl of 1 μM BDB, 1 μM cp33, 1 μM BDB with 0.1 μM labelled amyloid, 1 μM cp33 with 0.1 μM labelled amyloid, 0.1 μM labelled amyloid or a 1:100 PBS dilution of a pHrodo Red-labelled E. coli suspension (Thermo Fisher Scientific). […]
# The plates were placed in an IncuCyte instrument and settings programmed to scan both in phase contrast and the red fluorescence channel hourly for 48 h. […] A metric of Total Red Object Area (μm^2/well) was used to quantify the appearance of pHrodo red fluorescence within cells. […]
# [3] = test system: IFNγ-activated U937 cells; test: titrating BDB and IgG1 binding to IFNg stimulated U937 cells (FACS); format: cell-based, human; conditions: flow cytometry
# Protocol: (§1) Specifically, U937 cells were cultured in RPMI 1640+2 mM Glutamine+10% v/v foetal bovine serum (FCS) for 48 h in the absence or presence of […] human IFNγ (Thermo Fisher Scientific). Murine primary macrophages were cultured for 48 h in the absence or presence of 100 μg/ml LPS (Sigma). Aliquots of 5×10^5 cells were centrifuged 3 min at 300 g and resuspended either in 50 μl of 10 μM BDB, 1 μM biotinylated human IgG1 or PBS. Samples were incubated at 4° C. for 1 h and then centrifuged for 3 min at 100 g. Cells were resuspended in 50 μl of either AF488-streptavidin conjugate (Thermo Fisher Scientific, 1:500 in PBS) with APC-Cy7 dead/live stain (Thermo Fisher Scientific, 1:2000 in PBS) or dead/live stain only. Samples were incubated at 4° C. for 30 min and then centrifuged for 3 min at 100 g. Samples were washed with 200 μl cold PBS and resuspended in 250 μl PBS for analysis using a FACS Canto II, with 10^4 events recorded per condition. Using FlowJo software, cells were visualised using forward and side scatter plots (FSC vs. SSC) and live cells were gated according to their live/dead staining. The percentage of live cells positive for AF488 signal was identified for each condition and plotted. The experiment was repeated three times and results present as the mean (+/−SD). […]
# The binding of BDB and IgG1 to IFNγ stimulated U937 cells was determined using the following methods. […]
# [4] = test system: U937 cells treated with IFNγ; test: FACS binding to activated and non-activated U937 cells; format: cell-based; conditions: 10 μM BDB or 1 μM biotinylated human IgG1; 4° C., 1 h
# Protocol: (§2) In order to determine the binding affinity of BDB to activated phagocytic cells, activated and non-activated U937 cells or murine primary macrophages were resuspended in the presence of BDB, biotinylated human IgG1, or PBS. The cells were then stained using either AF488-streptavidin conjugate, APC-Cy7 dead/live stain, or dead/live stain only and measured using fluorescence activated cell sorting (FACS).
# as §1, with “condition.” for “condition. Using FlowJo software, cells were visualised using forward and side scatter plots (FSC vs. SSC) and live cells were gated according to their live/dead staining. The percentage of live cells positive for AF488 signal was identified for each condition and plotted. The experiment was repeated three times and results present as the mean (+/−SD).”
# [5] = test system: Fc receptor on IFNγ-activated U937 cells; test: competition of BDB and cp33 peptide binding with unlabelled human IgG1 (FACS); format: cell-based; conditions: 1 μM BDB or cp33; human IgG1 above approximately 10 nM
# [6] = test system: murine primary macrophages treated with LPS; test: FACS binding to activated and non-activated murine primary macrophages; format: cell-based; conditions: 10 μM BDB or 1 μM biotinylated human IgG1; 4° C., 1 h
# Protocol: as §2
# as §1, with “condition.” for “condition. Using FlowJo software, cells were visualised using forward and side scatter plots (FSC vs. SSC) and live cells were gated according to their live/dead staining. The percentage of live cells positive for AF488 signal was identified for each condition and plotted. The experiment was repeated three times and results present as the mean (+/−SD).”
# [7] = test system: IFNγ-activated U937 cells; test: colocalization of BDB and AF647-labelled hLys amyloid to the surface of U937 cells (FACS); format: cell-based, human; conditions: 1 μM BDB or cp33
# Protocol: IFNγ-activated U937 cells, a human macrophage cell line, were incubated with either BDB, cp33 peptide, or vehicle in the presence or absence of Alexa Fluor™ 647-labelled hLys amyloid in order to determine if the IFNγ-activated U937 cells have increased binding of amyloid in the presence of BDB or cp33 peptide as compared to vehicle.
# Specifically, hLys were labelled with the fluorescent dye alexa 647, using the Alexa Fluor™ 647 Microscale Protein Labelling Kit (Thermo Fisher Scientific) according to the manufacturer's instructions with the following modifications: after protein labelling, the solution was made up to 500 μl with PBS and the sample centrifuged at 20800 for 40 min. The supernatant was discarded and the pellet washed with PBS, resuspended in 500 μl PBS and the centrifugation repeated. The final pellet was resuspended in 100 μl of PBS.
# U937 cells were cultured in RPMI 1640+2 mM Glutamine+10% v/v FCS for 48 h in the presence of […] human IFNγ. Aliquots of 5×10^5 cells were centrifuged 3 min at 300 g and resuspended in 50 μl of either 1 μM BDB or cp33 and then incubated with either 1 or 0.1 μM AF647-hLyz. The staining and FACS analysis were performed as before, this time reporting the percentage of live cells positive for both AF488-streptavidin and AF647 h-Lyz.
Compound,fluorescence in the presence of amyloid proteins [1],"pHrodo red signal in the absence of amyloid ([2]; 1 μM BDB or 1 μM cp33, no amyloid)","phagocytosis of amyloid (pHrodo red signal, Total Red Object Area) ([2]; 1 μM BDB with 0.1 μM labelled amyloid, compared to cp33-amyloid or amyloid alone, hourly for 48 h)","IFNg-activated U937 cells bound ([3]; BDB 0.01-5 μM, biotinylated IgG1 0.01-1 μM) [%]",EC50 ([3]; read-out: half-maximal binding to IFNγ-activated U937 cells) [nM],binding to U937 cells treated with IFNγ versus non-activated (percentage of live cells positive for AF488 signal) [4],displacement from binding to IFNγ-activated U937 cells by human IgG1 [5],binding to murine primary macrophages treated with LPS versus non-activated (percentage of live cells positive for AF488 signal) [6],cell binding with or without amyloid [7],IFNγ-activated U937 cells binding amyloid (live cells positive for both AF488-streptavidin and AF647 h-Lyz) ([7]; 1 or 0.1 μM AF647-hLyz)
"Cc1ccc2c(c1)sc(-c1ccc(N(C)C)cc1)[n+]2C.[Cl-] [Tht, Thioflavin T, reference compound]",increased fluorescence,,,,,,,,,
"BDB: conjugate of Compound 1 (carboxylic acid derivative of thioflavin T) added as terminal residue to biotinylated cyclic cp33 peptide derivative (SEQ ID NO:3) (AQVNSCLLLPNLLGCGDDK; not fully specified (bridges); cysteine pairing not given here; also: biotinylated, thioflavin T derivative (Compound 1) added as terminal residue, end not given here)",increased fluorescence,did not generate a signal,enhances the phagocytosis of amyloid,≤ 80,~200,enhanced binding,displaced,enhanced binding,show cell binding irrespective of whether amyloid is present,Up to 14.4%
